# From patent publication US20250074919A1, “Heteroaryl compounds as inhibitors of irak4, compositions and applications thereof” (Accro Bioscience (HK) Limited, priority 2021, published 2025)
# Structures can show the parent of a compound that is named as a salt.
# Biological target: IRAK4 (Homo sapiens (Human), UniProt Q9NWZ3)
# Assay: Screening the compounds against IRAK4 with ATP (Caliper, FAM-labeled peptide)
# Format: biochemical
# Conditions: IRAK4 kinase inhibition relative to CA4948
# Procedure: Prepare Ix kinase base buffer and stop buffer for testing kinases: (1) base buffer: 50 mM HEPES (pH 7.5), 0.0015% Brij-35; (2) stop buffer: 100 mM HEPES (pH 7.5), 0.015% Brij-35, 0.2% Coating Reagent #3, 50 mM EDTA. Then prepare compounds for testing: Dilute the compound to 50× of the final desired highest inhibitor concentration in reaction by 100% DMSO. Transfer 100 μL of this compound dilution to a well in a 96-well plate (source plate).
# Serially dilute the compounds by 3-fold for a total of 10 points. Transfer 10 μL of the compound from the source plate to a new 96-well plate (intermediate plate) and add 90 μL of Ix kinase buffer. Shake the mixture on the intermediate plate for 10 min. Transfer 5 μL of each well from the 96-well intermediate plate to a 384-well plate in duplicates. Add 10 μL of 2.5× enzyme solution to each well of the 384-well assay plate and incubate at room temperature for 10 min. Add 10 μL, of 2.5×FAM-labeled peptide and ATP solution and incubate at 28° C. for a period of time. Finally stop the reaction by adding 30 μL of stop buffer and collect data on Caliper to obtain the IC50.
# IRAK4, sequence (Q9NWZ3 whole entry): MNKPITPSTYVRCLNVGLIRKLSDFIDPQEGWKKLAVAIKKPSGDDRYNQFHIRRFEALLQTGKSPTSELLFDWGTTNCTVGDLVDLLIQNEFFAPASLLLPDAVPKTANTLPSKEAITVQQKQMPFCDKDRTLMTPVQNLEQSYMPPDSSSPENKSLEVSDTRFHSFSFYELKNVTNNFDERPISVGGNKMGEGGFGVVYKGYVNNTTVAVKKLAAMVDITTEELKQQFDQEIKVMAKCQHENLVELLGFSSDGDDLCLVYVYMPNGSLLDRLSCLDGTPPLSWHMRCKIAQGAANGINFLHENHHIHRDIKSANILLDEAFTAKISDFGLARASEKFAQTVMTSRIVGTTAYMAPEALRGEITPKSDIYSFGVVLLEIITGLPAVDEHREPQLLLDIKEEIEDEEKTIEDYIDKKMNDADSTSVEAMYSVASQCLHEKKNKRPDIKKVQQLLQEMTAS
row,SMILES,"activity, times better than that of the positive control compound CA4948"
1,"COc1nc2nc(N3CCOCC3)oc2cc1C(=O)Nc1cccc(-c2cnn(C)c2)n1 [Compound A54, 5-Methoxy-N-(6-(1-methyl-1H-pyrazol-4-yl)pyridin-2-yl)-2-morpholinooxazolo[4,5-b]pyridine-6-carboxamide]",more than 5 times
2,"Cn1cc(-c2cccc(NC(=O)c3cc4oc(N5CCOCC5)nc4nc3N3CCC(C)(O)CC3)n2)cn1 [Compound A25, 5-(4-Hydroxy-4-methylpiperidin-1-yl)-N-(6-(1-methyl-1H-pyrazol-4-yl)pyridin-2-yl)-2-morpholinooxazolo[4,5-b]pyridine-6-carboxamide]",more than 10 times
3,"Cn1cc(-c2cccc(NC(=O)c3cc4oc(N5CCOCC5)nc4nc3N3CCC4(CCO4)CC3)n2)cn1 [Compound A26, N-(6-(1-Methyl-1H-pyrazol-4-yl)pyridin-2-yl)-2-morpholino-5-(1-oxa-7-azaspiro[3.5]nonan-7-yl)oxazolo[4,5-b]pyridine-6-carboxamide]",more than 25 times

# Second part, the compound after the results:
row,"activity, times better than that of the positive control compound CA4948",SMILES
1,more than 25 times,"COC1CCN(c2nc3c(cc2C(=O)Nc2cccc(-c4cnn(C)c4)n2)CC(C)(C)O3)CC1 [Compound B1, 6-(4-Methoxypiperidin-1-yl)-2,2-dimethyl-N-(6-(1-methyl-1H-pyrazol-4-yl)pyridin-2-yl)-2,3-dihydrofuro[2,3-b]pyridine-5-carboxamide]"
2,more than 10 times,"Cn1cc(-c2cccc(NC(=O)c3cc4c(nc3OC3CC3)OC(C)(C)C4)n2)cn1 [Compound B29, 6-Cyclopropoxy-2,2-dimethyl-N-(6-(1-methyl-1H-pyrazol-4-yl)pyridin-2-yl)-2,3-dihydrofuro[2,3-b]pyridine-5-carboxamide]"

# Same assay, conditions: read-out: IC50 (nM) (10 μM ATP)
row,SMILES,IC50
1,"COC1CCN(c2nc3nc(N4CCN(CCO)CC4)oc3cc2C(=O)Nc2cccc(-c3cnn(C)c3)n2)CC1 [Compound A57, 2-(4-(2-Hydroxyethyl)piperazin-1-yl)-5-(4-methoxypiperidin-1-yl)-N-(6-(1-methyl-1H-pyrazol-4-yl)pyridin-2-yl)oxazolo[4,5-b]pyridine-6-carboxamide]",5.1 nM
2,"Cn1cc(-c2cccc(NC(=O)c3cc4oc(N5CCOCC5)nc4nc3N3CCC4(CCO4)CC3)n2)cn1 [Compound A26, N-(6-(1-Methyl-1H-pyrazol-4-yl)pyridin-2-yl)-2-morpholino-5-(1-oxa-7-azaspiro[3.5]nonan-7-yl)oxazolo[4,5-b]pyridine-6-carboxamide]",4.2 nM

# Same assay, conditions: read-out: IC50 (nM) (10 μM ATP); IRAK4 kinase, 10 μM ATP
row,SMILES,IC50
1,"Cn1cc(-c2cccc(NC(=O)c3cc4oc(N5CCOCC5)nc4nc3N3CC4(CC(O)C4)C3)n2)cn1 [Compound A22, 5-(6-Hydroxy-2-azaspiro[3.3]heptan-2-yl)-N-(6-(1-methyl-1H-pyrazol-4-yl)pyridin-2-yl)-2-morpholinooxazolo[4,5-b]pyridine-6-carboxamide]",188 nM
2,"Cn1cc(-c2cccc(NC(=O)c3cc4oc(N5CCOCC5)nc4nc3N3CC4(C3)CC(F)(F)C4)n2)cn1 [Compound A15, 5-(6,6-Difluoro-2-azaspiro[3.3]heptan-2-yl)-N-(6-(1-methyl-1H-pyrazol-4-yl)pyridin-2-yl)-2-morpholinooxazolo[4,5-b]pyridine-6-carboxamide]",244 nM
3,"Cn1cc(-c2cccc(NC(=O)c3cc4oc(N5CCOCC5)nc4nc3N3CC(C)(O)C3)n2)cn1 [Compound A14, 5-(3-Hydroxy-3-methylazetidin-1-yl)-N-(6-(1-methyl-1H-pyrazol-4-yl)pyridin-2-yl)-2-morpholinooxazolo[4,5-b]pyridine-6-carboxamide]",164 nM
4,"COc1nc2nc(N3CCOCC3)oc2cc1C(=O)Nc1cccc(-c2cnn(C)c2)n1 [Compound A54, 5-Methoxy-N-(6-(1-methyl-1H-pyrazol-4-yl)pyridin-2-yl)-2-morpholinooxazolo[4,5-b]pyridine-6-carboxamide]",21 nM
5,"Cn1cc(-c2cccc(NC(=O)c3cc4oc(N5CCNCC5)nc4nc3N3CCC4(CCO4)CC3)n2)cn1 [Compound A55, N-(6-(1-Methyl-1H-pyrazol-4-yl)pyridin-2-yl)-2-(piperazin-1-yl)-5-(1-oxa-7-azaspiro[3.5]nonan-7-yl)oxazolo[4,5-b]pyridine-6-carboxamide]",5.9 nM
6,"Cn1cc(-c2cccc(NC(=O)c3cc4oc(N5CCOCC5)nc4nc3N3CC[C@H](O)C3)n2)cn1 [Compound A6, (S)-5-(3-hydroxypyrrolidin-1-yl)-N-(6-(1-methyl-1H-pyrazol-4-yl)pyridin-2-yl)-2-morpholinooxazolo[4,5-b]pyridine-6-carboxamide]",194 nM
7,"Cn1cc(-c2cccc(NC(=O)c3cc4oc(N5CCOCC5)nc4nc3N3CCC(C)(O)CC3)n2)cn1 [Compound A25, 5-(4-Hydroxy-4-methylpiperidin-1-yl)-N-(6-(1-methyl-1H-pyrazol-4-yl)pyridin-2-yl)-2-morpholinooxazolo[4,5-b]pyridine-6-carboxamide]",8.6 nM
8,"COCCN1CCN(c2nc3nc(N4CCOCC4)oc3cc2C(=O)Nc2cccc(-c3cnn(C)c3)n2)CC1 [Compound A34, 5-(4-(2-Methoxyethyl)piperazin-1-yl)-N-(6-(1-methyl-1H-pyrazol-4-yl)pyridin-2-yl)-2-morpholinooxazolo[4,5-b]pyridine-6-carboxamide Hydrochloride]",40 nM
9,"Cn1cc(-c2cccc(NC(=O)c3cc4oc(N5CCNCC5)nc4nc3N3CCC(C)(O)CC3)n2)cn1 [Compound A56, 5-(4-Hydroxy-4-methylpiperidin-1-yl)-N-(6-(1-methyl-1H-pyrazol-4-yl)pyridin-2-yl)-2-(piperazin-1-yl)oxazolo[4,5-b]pyridine-6-carboxamide]",7.8 nM
10,"COC1CCN(c2nc3nc(N4CCN(C)CC4)oc3cc2C(=O)Nc2cccc(-c3cnn(C)c3)n2)CC1 [Compound A52, 5-(4-Methoxypiperidin-1-yl)-N-(6-(1-methyl-1H-pyrazol-4-yl)pyridin-2-yl)-2-(4-methylpiperazin-1-yl)oxazolo[4,5-b]pyridine-6-carboxamide]",5.1 nM
11,"Cn1cc(-c2cccc(NC(=O)c3cc4c(nc3OC3CCC3)OC(C)(C)C4)n2)cn1 [Compound B14, 6-Cyclobutoxy-2,2-dimethyl-N-(6-(1-methyl-1H-pyrazol-4-yl)pyridin-2-yl)-2,3-dihydrofuro[2,3-b]pyridine-5-carboxamide]",6.1 nM
12,"CN1CCN(c2nc3nc(N4CCOCC4)oc3cc2C(=O)Nc2cccc(-c3cnn(C)c3)n2)CC1 [Compound A3, N-(6-(1-methyl-1H-pyrazol-4-yl)pyridin-2-yl)-5-(4-methylpiperazin-1-yl)-2-morpholinooxazolo[4,5-b]pyridine-6-carboxamide]",43 nM

# Other lines, results leading:
row,IC50,SMILES
1,4.5 nM,"COC1CCN(c2nc3c(cc2C(=O)Nc2cccc(-c4cnn(C)c4)n2)CC(C)(C)O3)CC1 [Compound B1, 6-(4-Methoxypiperidin-1-yl)-2,2-dimethyl-N-(6-(1-methyl-1H-pyrazol-4-yl)pyridin-2-yl)-2,3-dihydrofuro[2,3-b]pyridine-5-carboxamide]"
2,31 nM,"Cn1cc(-c2cccc(NC(=O)c3cc4c(nc3N3CCN(CCO)CC3)OC(C)(C)C4)n2)cn1 [Compound B3, 6-(4-(2-Hydroxyethyl)piperazin-1-yl)-2,2-dimethyl-N-(6-(1-methyl-1H-pyrazol-4-yl)pyridin-2-yl)-2,3-dihydrofuro[2,3-b]pyridine-5-carboxamide]"
3,248 nM,"Cn1cc(-c2cccc(NC(=O)c3cc4c(nc3OC3CNC(=O)OC3)OC(C)(C)C4)n2)cn1 (stereo not shown) [Compound B28, 2,2-Dimethyl-N-(6-(1-methyl-1H-pyrazol-4-yl)pyridin-2-yl)-6-((2-oxo-1,3-oxazinan-5-yl)oxy)-2,3-dihydrofuro[2,3-b]pyridine-5-carboxamide]"
4,13 nM,"CC(Oc1nc2c(cc1C(=O)Nc1cccc(-c3cnn(C)c3)n1)CC(C)(C)O2)C1CC1 (stereo not shown) [Compound B26, 6-(1-Cyclopropylethoxy)-2,2-dimethyl-N-(6-(1-methyl-1H-pyrazol-4-yl)pyridin-2-yl)-2,3-dihydrofuro[2,3-b]pyridine-5-carboxamide]"
5,5.9 nM,"Cn1cc(-c2cccc(NC(=O)c3cc4c(nc3N3CCC5(CCO5)CC3)OC(C)(C)C4)n2)cn1 [Compound B6, 2,2-Dimethyl-N-(6-(1-methyl-1H-pyrazol-4-yl)pyridin-2-yl)-6-(1-oxa-7-azaspiro[3.5]nonan-7-yl)-2,3-dihydrofuro[2,3-b]pyridine-5-carboxamide]"
6,354 nM,"Cn1cc(-c2cccc(NC(=O)c3cc4c(nc3OC3CCNC3)OC(C)(C)C4)n2)cn1 (stereo not shown) [Compound B22, 2,2-Dimethyl-N-(6-(1-methyl-1H-pyrazol-4-yl)pyridin-2-yl)-6-(pyrrolidin-3-yloxy)-2,3-dihydrofuro[2,3-b]pyridine-5-carboxamide]"
7,6.2 nM,"Cn1cc(-c2cccc(NC(=O)c3cc4c(nc3OC3CC3)OC(C)(C)C4)n2)cn1 [Compound B29, 6-Cyclopropoxy-2,2-dimethyl-N-(6-(1-methyl-1H-pyrazol-4-yl)pyridin-2-yl)-2,3-dihydrofuro[2,3-b]pyridine-5-carboxamide]"
8,69 nM,"CC1(C)Cc2cc(C(=O)Nc3cccn([C@H]4C[C@H]4F)c3=O)c(N3CCC(O)CC3)nc2O1 [Compound B9, N-(1-((1S,2R)-2-Fluorocyclopropyl)-2-oxo-1,2-dihydropyridin-3-yl)-6-(4-hydroxypiperidin-1-yl)-2,2-dimethyl-2,3-dihydrofuro[2,3-b]pyridine-5-carboxamide]"
9,54 nM,"CN1CCN(c2nc3c(cc2C(=O)Nc2cccc(-c4cnn(C)c4)n2)CC(C)(C)O3)CC1 [Compound B2, 2,2-Dimethyl-N-(6-(1-methyl-1H-pyrazol-4-yl)pyridin-2-yl)-6-(4-methylpiperazin-1-yl)-2,3-dihydrofuro[2,3-b]pyridine-5-carboxamide]"
10,75 nM,"CN1CCC(Oc2nc3c(cc2C(=O)Nc2cccc(-c4cnn(C)c4)n2)CC(C)(C)O3)C1 (stereo not shown) [Compound B21, 2,2-Dimethyl-N-(6-(1-methyl-1H-pyrazol-4-yl)pyridin-2-yl)-6-((1-methylpyrrolidin-3-yl)oxy)-2,3-dihydrofuro[2,3-b]pyridine-5-carboxamide]"
11,9.2 nM,"CCOc1nc2c(cc1C(=O)Nc1cccc(-c3cnn(C)c3)n1)CC(C)(C)O2 [Compound B12, 6-Ethoxy-2,2-dimethyl-N-(6-(1-methyl-1H-pyrazol-4-yl)pyridin-2-yl)-2,3-dihydrofuro[2,3-b]pyridine-5-carboxamide]"
12,11 nM,"Cn1cc(-c2cccc(NC(=O)c3cc4c(nc3OC3COC3)OC(C)(C)C4)n2)cn1 [Compound B16, 2,2-Dimethyl-N-(6-(1-methyl-1H-pyrazol-4-yl)pyridin-2-yl)-6-(oxetan-3-yloxy)-2,3-dihydrofuro[2,3-b]pyridine-5-carboxamide]"
